Several values for one entry are separate records, joined by “and”; a condition that tells them apart may be missing. Equal entries are not always repeated. Toxic doses and inconclusive results are not listed.
Test system: CD2F1 mice, L1210 leukemia ip, survival T/C
Test: NCI In Vivo Anticancer Drug Screen. Data for tumor model L1210 Leukemia (intraperitoneal) in CD2F1 (CDF1) mice
Conditions: endpoint: mean survival time, higher = longer survival
How it was run: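 Activity against a transplanted murine tumor was judged by comparing the compound group with a vehicle group. The outcome in the treated animals was divided by that in the controls.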

[1] = dose: 100.0 mg/kg/injection, schedule: Q01DX001 (ip), vehicle: saline with Tween-80
[2] = dose: 200.0 mg/kg/injection, schedule: Q01DX001 (ip), vehicle: saline with Tween-80
[3] = dose: 100.0 mg/kg/injection, schedule: Q04DX002 (ip), vehicle: saline with Tween-80
[4] = dose: 200.0 mg/kg/injection, schedule: Q04DX002 (ip), vehicle: saline with Tween-80
[5] = dose: 400.0 mg/kg/injection, schedule: Q04DX002 (ip), vehicle: saline with Tween-80
[6] = dose: 100.0 mg/kg/injection, schedule: Q04DX003 (ip), vehicle: saline
[7] = dose: 200.0 mg/kg/injection, schedule: Q04DX003 (ip), vehicle: saline
[8] = dose: 400.0 mg/kg/injection, schedule: Q04DX003 (ip), vehicle: saline
[9] = dose: 100.0 mg/kg/injection, schedule: Q01DX009 (ip), vehicle: saline with Tween-80
[10] = dose: 200.0 mg/kg/injection, schedule: Q01DX009 (ip), vehicle: saline with Tween-80
[11] = dose: 400.0 mg/kg/injection, schedule: Q01DX009 (ip), vehicle: saline with Tween-80
[12] = dose: 100.0 mg/kg/injection, schedule: Q01DX001 (ip), vehicle: saline
[13] = dose: 200.0 mg/kg/injection, schedule: Q01DX001 (ip), vehicle: saline
[14] = dose: 400.0 mg/kg/injection, schedule: Q01DX001 (ip), vehicle: saline
[15] = dose: 100.0 mg/kg/injection, schedule: Q01DX009 (ip), vehicle: saline
[16] = dose: 200.0 mg/kg/injection, schedule: Q01DX009 (ip), vehicle: saline
[17] = dose: 400.0 mg/kg/injection, schedule: Q01DX009 (ip), vehicle: saline
[18] = dose: 100.0 mg/kg/injection, schedule: Q04DX003 (ip), vehicle: saline with Tween-80
[19] = dose: 200.0 mg/kg/injection, schedule: Q04DX003 (ip), vehicle: saline with Tween-80
[20] = dose: 400.0 mg/kg/injection, schedule: Q04DX003 (ip), vehicle: saline with Tween-80

## O=C1C(Br)=CC2C1C1C=CC2(Br)C1=O (configuration not stated)
dose: 50.0 mg/kg/injection, schedule: Q01DX001 (ip), vehicle: saline with Tween-80
  T/C: 109 % of control
[1]
  T/C: 103 % of control
[2]
  T/C: 101 % of control

## CCCCCOc1ccc(Cl)cc1Cl
[3]
  T/C: 86 % of control
[4]
  T/C: 101 % of control
[5]
  T/C: 109 % of control

## Cc1cn(C2CC(O)C(COC(=O)Nc3cccc4ccccc34)O2)c(=O)[nH]c1=O (configuration not stated)
dose: 12.5 mg/kg/injection, schedule: Q01DX005 (ip), vehicle: other
  T/C: 100 % of control
dose: 25.0 mg/kg/injection, schedule: Q01DX005 (ip), vehicle: other
  T/C: 100 % of control
dose: 50.0 mg/kg/injection, schedule: Q01DX005 (ip), vehicle: other
  T/C: 90 % of control
dose: 100.0 mg/kg/injection, schedule: Q01DX005 (ip), vehicle: other
  T/C: 94 % of control
dose: 200.0 mg/kg/injection, schedule: Q01DX005 (ip), vehicle: other
  T/C: 94 % of control

## CCCN(CCC)CC(=O)c1ccc2cc(Br)c3ccccc3c2c1
[6]
  T/C: 92 % of control
[7]
  T/C: 91 % of control
[8]
  T/C: 89 % of control

## CN(Cc1ccc2nc(N)nc(N)c2n1)c1ccc(C(=O)NC(CCC(=O)O)C(=O)O)cc1 (configuration not stated)
dose: 0.12 mg/kg/injection, schedule: Q01DX005 (ip), vehicle: sodium bicarbonate
  T/C: 150 % of control
dose: 0.5 mg/kg/injection, schedule: Q01DX005 (ip), vehicle: sodium bicarbonate
  T/C: 115 % of control
dose: 31.25 micrograms/kg/injection, schedule: Q01DX005 (ip), vehicle: sodium bicarbonate
  T/C: 101 % of control
dose: 62.5 micrograms/kg/injection, schedule: Q01DX005 (ip), vehicle: sodium bicarbonate
  T/C: 116 % of control
dose: 125.0 micrograms/kg/injection, schedule: Q01DX005 (ip), vehicle: sodium bicarbonate
  T/C: 122 % of control

## COc1ccc2cc[n+](C)c(Cc3ccc(OC)c(Oc4ccc(Cc5c(OC)ccc6cc[n+](C)cc56)cc4)c3)c2c1
dose: 1.56 mg/kg/injection, schedule: Q04DX003 (ip), vehicle: other
  T/C: 98 % of control
dose: 3.13 mg/kg/injection, schedule: Q04DX003 (ip), vehicle: other
  T/C: 102 % of control
dose: 6.25 mg/kg/injection, schedule: Q04DX003 (ip), vehicle: other
  T/C: 98 % of control and 103 % of control

## C=C(C)Cc1cc(C(CC)C(CC)c2ccc(O)c(CC(=C)C)c2)ccc1O (configuration not stated)
[9]
  T/C: 100 % of control
[6]
  T/C: 96 % of control
[10]
  T/C: 98 % of control
[7]
  T/C: 93 % of control
[11]
  T/C: 100 % of control
[8]
  T/C: 89 % of control

## CS(=O)(=O)OC1CCCCC1c1ccccc1 (configuration not stated)
dose: 100.0 mg/kg/injection, schedule: Q01DX001 (ip), vehicle: carboxymethylcellulose (CMC)
  T/C: 103 % of control
dose: 200.0 mg/kg/injection, schedule: Q01DX001 (ip), vehicle: carboxymethylcellulose (CMC)
  T/C: 103 % of control
dose: 400.0 mg/kg/injection, schedule: Q01DX001 (ip), vehicle: carboxymethylcellulose (CMC)
  T/C: 101 % of control

## COCCOC(C)C(=O)C(O)S(=O)(=O)O (configuration not stated)
dose: 50.0 mg/kg/injection, schedule: Q01DX001 (ip), vehicle: saline
  T/C: 98 % of control
[12]
  T/C: 102 % of control
[6]
  T/C: 103 % of control
[13]
  T/C: 100 % of control
[7]
  T/C: 103 % of control
[14]
  T/C: 100 % of control
[8]
  T/C: 103 % of control

## CO[C@H]1C[C@H](O[C@H]2CC[C@]3(C=O)[C@H]4CC[C@]5(C)[C@@H](C6=CC(=O)OC6)CC[C@]5(O)[C@@H]4CC[C@]3(O)C2)O[C@H](C)[C@H]1O[C@@H]1O[C@H](CO)[C@@H](O)[C@H](O)[C@H]1O
dose: 0.25 mg/kg/injection, schedule: Q01DX009 (ip), vehicle: saline
  T/C: 102 % of control
dose: 0.5 mg/kg/injection, schedule: Q01DX009 (ip), vehicle: saline
  T/C: 96 % of control
dose: 1.0 mg/kg/injection, schedule: Q01DX009 (ip), vehicle: saline
  T/C: 110 % of control

## Cc1ccc(S(=O)(=O)c2ccccc2)cc1
[15]
  T/C: 88 % of control
[16]
  T/C: 87 % of control
[17]
  T/C: 92 % of control

## O=C(O)COc1cc(F)c(Cl)cc1F
[3]
  T/C: 102 % of control
[4]
  T/C: 105 % of control
[5]
  T/C: 109 % of control

## CCN(CCS)Cc1ccccc1
[18]
  T/C: 98 % of control

## CSC(=S)NN=C(C)C
dose: 6.25 mg/kg/injection, schedule: Q01DX009 (ip), vehicle: saline sonified
  T/C: 89 % of control
dose: 6.25 mg/kg/injection, schedule: Q04DX003 (ip), vehicle: saline with Tween-80
  T/C: 96 % of control
dose: 12.5 mg/kg/injection, schedule: Q01DX009 (ip), vehicle: saline sonified
  T/C: 87 % of control
dose: 12.5 mg/kg/injection, schedule: Q04DX003 (ip), vehicle: saline with Tween-80
  T/C: 96 % of control

## Oc1ccc(N=Nc2ccccn2)c(O)c1
[18]
  T/C: 97 % of control
[19]
  T/C: 112 % of control
[20]
  T/C: 93 % of control

## OCC1OC(OC2C(CO)OC(Sc3ccccc3)C(O)C2O)C(O)C(O)C1O (configuration not stated)
[18]
  T/C: 97 % of control
[6]
  T/C: 103 % of control
[19]
  T/C: 95 % of control
[7]
  T/C: 103 % of control
[20]
  T/C: 97 % of control
[8]
  T/C: 95 % of control

## CC(C)(C)C(O)CC(O)(C(F)(F)Cl)C(F)(F)Cl (configuration not stated)
[9]
  T/C: 101 % of control
[10]
  T/C: 109 % of control
[11]
  T/C: 105 % of control

## COC1=CC(c2ccccc2[N+](=O)[O-])OC1=O (configuration not stated)
[9]
  T/C: 97 % of control
[18]
  T/C: 96 % of control
[10]
  T/C: 91 % of control
[19]
  T/C: 91 % of control
[11]
  T/C: 91 % of control
[20]
  T/C: 93 % of control

## COc1ccc(NC(=O)CC(C)=O)cc1
[9]
  T/C: 97 % of control
[10]
  T/C: 103 % of control
[11]
  T/C: 100 % of control

## O=Cc1cc(C(=O)O)ccc1O
[12]
  T/C: 100 % of control
[13]
  T/C: 97 % of control
[14]
  T/C: 94 % of control

## C1=NOC2c3ccc4ccccc4c3CCC12 (configuration not stated)
dose: 100.0 mg/kg/injection, schedule: Q04DX003 (ip), vehicle: Klucel (hydroxypropylcellulose) (HPC)
  T/C: 100 % of control
dose: 200.0 mg/kg/injection, schedule: Q04DX003 (ip), vehicle: Klucel (hydroxypropylcellulose) (HPC)
  T/C: 101 % of control
dose: 400.0 mg/kg/injection, schedule: Q04DX003 (ip), vehicle: Klucel (hydroxypropylcellulose) (HPC)
  T/C: 107 % of control

## O=S(=O)(O)O.[NH-]C1CCCCCC1[NH-].[Pt+2] (configuration not stated)
dose: 1.56 mg/kg/injection, schedule: Q04DX003 (ip), vehicle: dextrose
  T/C: 205 % of control
dose: 3.13 mg/kg/injection, schedule: Q01DX001 (ip), vehicle: dextrose
  T/C: 200 % of control and 204 % of control
dose: 3.13 mg/kg/injection, schedule: Q04DX003 (ip), vehicle: dextrose
  T/C: 188 % of control and 241 % of control and 103 % of control
dose: 6.25 mg/kg/injection, schedule: Q01DX001 (ip), vehicle: dextrose
  T/C: 170 % of control and 189 % of control
dose: 12.5 mg/kg/injection, schedule: Q01DX001 (ip), vehicle: dextrose
  T/C: 86 % of control
dose: 12.5 mg/kg/injection, schedule: Q04DX003 (ip), vehicle: dextrose
  T/C: 97 % of control

## Nc1nc(N)c(-c2ccc(Cl)c(Cl)c2)c(CP(Cl)(Cl)(Cl)Br)n1
dose: 12.5 mg/kg/injection, schedule: Q01DX009 (ip), vehicle: Klucel (hydroxypropylcellulose) (HPC)
  T/C: 100 % of control
dose: 25.0 mg/kg/injection, schedule: Q01DX009 (ip), vehicle: Klucel (hydroxypropylcellulose) (HPC)
  T/C: 94 % of control
dose: 50.0 mg/kg/injection, schedule: Q01DX009 (ip), vehicle: Klucel (hydroxypropylcellulose) (HPC)
  T/C: 102 % of control
dose: 50.0 mg/kg/injection, schedule: Q01DX009 (ip), vehicle: saline with Tween-80
  T/C: 160 % of control
[1]
  T/C: 98 % of control
dose: 100.0 mg/kg/injection, schedule: Q01DX009 (ip), vehicle: Klucel (hydroxypropylcellulose) (HPC)
  T/C: 88 % of control
[3]
  T/C: 94 % of control
[18]
  T/C: 95 % of control
[2]
  T/C: 90 % of control
[4]
  T/C: 107 % of control
[19]
  T/C: 100 % of control
dose: 400.0 mg/kg/injection, schedule: Q01DX001 (ip), vehicle: saline with Tween-80
  T/C: 105 % of control
[5]
  T/C: 100 % of control

## CC(CN)OCc1ccccc1 (configuration not stated)
dose: 25.0 mg/kg/injection, schedule: Q04DX003 (ip), vehicle: saline
  T/C: 98 % of control
dose: 50.0 mg/kg/injection, schedule: Q04DX003 (ip), vehicle: saline
  T/C: 101 % of control
[6]
  T/C: 101 % of control

## CS(=O)(=O)/C=C(\I)c1ccccc1
[15]
  T/C: 98 % of control
[6]
  T/C: 104 % of control
[16]
  T/C: 93 % of control
[7]
  T/C: 106 % of control
[17]
  T/C: 95 % of control
[8]
  T/C: 98 % of control

Source: PubChem BioAssay AID256 (DTP/NCI, 2004)
